In general, Ki refers to a measure of affinity in units of concentration, obtained from inhibition or displacement. Low values mean a stronger hold on the target, high ones a looser hold on the target. Broadly, the EC50 is the midpoint of the concentration-response curve.

One experiment concerns C. elegans. Briefly: Suppression of trichlorfon (AChE inhibitor) paralysis, double dose-response, scored after 80 min. It is filed as in vivo, Caenorhabditis elegans. As to conditions: wild-type, bio rep 1-3.
In a further experiment the target is T1, rat VAChT (Rattus norvegicus, UniProt Q62666).
T1 construct: expressed in transfected cells; host or cells: rat PC12 (PC12 A123.7) cells, stably transfected; shared by Dr. Ali Roghani (Texas Tech University)
T1 sequence (Q62666 1-530): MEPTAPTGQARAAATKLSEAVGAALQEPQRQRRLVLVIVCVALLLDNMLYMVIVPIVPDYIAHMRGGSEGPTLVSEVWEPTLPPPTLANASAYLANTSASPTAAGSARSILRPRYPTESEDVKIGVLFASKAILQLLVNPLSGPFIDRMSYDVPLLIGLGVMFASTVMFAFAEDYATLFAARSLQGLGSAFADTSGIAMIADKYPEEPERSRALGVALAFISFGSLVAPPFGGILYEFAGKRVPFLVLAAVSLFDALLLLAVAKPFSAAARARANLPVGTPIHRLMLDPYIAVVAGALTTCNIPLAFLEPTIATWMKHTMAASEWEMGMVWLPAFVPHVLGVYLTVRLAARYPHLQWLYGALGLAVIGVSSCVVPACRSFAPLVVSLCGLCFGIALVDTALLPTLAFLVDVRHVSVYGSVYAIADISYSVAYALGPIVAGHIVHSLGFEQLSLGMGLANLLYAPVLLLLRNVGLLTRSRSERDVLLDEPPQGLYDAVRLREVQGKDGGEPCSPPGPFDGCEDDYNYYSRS
Nature of the experiment: [3H]Vesamicol competitive radioligand binding, PC12 cells expressing ratVAChT. As to conditions: ratVAChT Ki, [3H]Vesamicol displacement, mean.

Experiment [1] deals with Dirofilaria immitis L3/L4. Nature of the experiment: Dirofilaria immitis L3/L4 motility assay (DiroImager, 72 h). As to conditions: Dirofilaria immitis L4.
The test system of experiment [2] is Dirofilaria immitis microfilariae. Briefly: Dirofilaria immitis microfilariae immobility assay (DiroImager, 72 h). As to conditions: for % effect (motility), DIROIM MF: Dirofilaria immitis microfilariae; for EC50: Dirofilaria immitis, 72 h, read-out: Dirofilaria immitis filariae EC50. The method, boiled down: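 About 250 freshly purified microfilariae of the Missouri isolate per well in supplemented RPMI 1640, exposed to compound for 72 h. Motility scored by automated whole-plate optical imaging; medium with 1% DMSO as negative control.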

Several values for one entry are separate records, joined by “and”; a condition that tells them apart may be missing. Identical values can stand only once.

On to `O[C@@H]1CCCC[C@H]1N1CCC(c2ccccc2)CC1` (racemic) [vesamicol, reference compound], for which the “% para (percentage of animals able to adopt a clear sinusoidal wave pattern upon touch on the nose)” value with C. elegans (vesamicol 31.75 uM + trichlorfon 0 uM) is 96.4286% and 100%; in the experiment on C. elegans (vesamicol 31.75 uM + trichlorfon 25 uM) it was 92.8571% and 96.4286% and 100%; in the experiment on C. elegans (vesamicol 31.75 uM + trichlorfon 50 uM), 82.1429% and 71.4286% and 96.4286%; in the experiment with C. elegans (vesamicol 31.75 uM + trichlorfon 100 uM), 64.2857% and 53.5714% and 42.8571%; with C. elegans (vesamicol 31.75 uM + trichlorfon 400 uM), 0%; in the experiment with C. elegans (vesamicol 31.75 uM + trichlorfon 800 uM), 0%. Further, the “% para (percentage of animals able to adopt a clear sinusoidal wave pattern upon touch on the nose)” value in the experiment with C. elegans (vesamicol 62.5 uM + trichlorfon 0 uM) is 100%; with C. elegans (vesamicol 62.5 uM + trichlorfon 25 uM), 92.8571% and 100%; with C. elegans (vesamicol 62.5 uM + trichlorfon 50 uM) it was 89.2857% and 85.7143% and 96.4286%; in the experiment with C. elegans (vesamicol 62.5 uM + trichlorfon 100 uM), 67.8571% and 64.2857% and 53.5714%; in the experiment with C. elegans (vesamicol 62.5 uM + trichlorfon 400 uM), 0% and 3.571%; with C. elegans (vesamicol 62.5 uM + trichlorfon 800 uM), 0%. Moreover, the “% para (percentage of animals able to adopt a clear sinusoidal wave pattern upon touch on the nose)” value was 100% with C. elegans (vesamicol 125 uM + trichlorfon 0 uM); 96.4286% and 100% in the experiment on C. elegans (vesamicol 125 uM + trichlorfon 25 uM); 96.4286% and 78.5714% and 92.8571% with C. elegans (vesamicol 125 uM + trichlorfon 50 uM); 85.7143% and 67.8571% and 60.7143% in the experiment with C. elegans (vesamicol 125 uM + trichlorfon 100 uM); 0% in the experiment with C. elegans (vesamicol 125 uM + trichlorfon 800 uM); 96.4286% and 100% with C. elegans (vesamicol 250 uM + trichlorfon 0 uM). Besides, the “% para (percentage of animals able to adopt a clear sinusoidal wave pattern upon touch on the nose)” value is 100% and 96.4286% in the experiment on C. elegans (vesamicol 250 uM + trichlorfon 25 uM); 96.4286% and 89.2857% and 100% in the experiment on C. elegans (vesamicol 250 uM + trichlorfon 50 uM); 75% and 78.5714% in the experiment on C. elegans (vesamicol 250 uM + trichlorfon 100 uM); 0% in the experiment on C. elegans (vesamicol 250 uM + trichlorfon 800 uM); 100% with C. elegans (vesamicol 500 uM + trichlorfon 0 uM); 100% and 92.8571% and 96.4286% in the experiment on C. elegans (vesamicol 500 uM + trichlorfon 25 uM). The “% para (percentage of animals able to adopt a clear sinusoidal wave pattern upon touch on the nose)” value is 89.2857% and 96.4286% and 78.5714% with C. elegans (vesamicol 500 uM + trichlorfon 50 uM); 82.1429% and 85.7143% in the experiment on C. elegans (vesamicol 500 uM + trichlorfon 100 uM); 42.8571% and 50% and 71.4286% with C. elegans (vesamicol 500 uM + trichlorfon 200 uM); 0% with C. elegans (vesamicol 500 uM + trichlorfon 800 uM). Also, affinity at rat VAChT was put at a Ki of 0.021 µM.
As for `O=[N+]([O-])c1ccc(N2CCN(CC3CC=CCC3)CC2)cc1` (centres unmarked) [Nemacol-4], the “% effect (motility), DIROIM L4” value in experiment [1] (2 µM) stood at 5%; in experiment [1] (10 µM) it was 100%; in experiment [1] (50 µM) it was 100%. The “% effect (motility), DIROIM MF” value in experiment [2] (0.08 µM) was 0%; in experiment [2] (0.4 µM), 0%; in experiment [2] (2 µM), 0%; in experiment [2] (10 µM) it was 100%; in experiment [2] (50 µM), 100%. Moreover, the EC50 in experiment [2] was found to be 5.2 µM.
As for `O=[N+]([O-])c1ccc(N2CCN(CC3CC4C=CC3C4)CC2)cc1` (centres unmarked) [Nemacol-3], the “% effect (motility), DIROIM L4” value in experiment [1] (2 µM) came to 0%; in experiment [1] (10 µM) it was 75%; in experiment [1] (50 µM), 100%. Besides, the “% effect (motility), DIROIM MF” value in experiment [2] (0.08 µM) is on record as 0%; in experiment [2] (0.4 µM), 0%; in experiment [2] (2 µM) it was 0%; in experiment [2] (10 µM), 80%; in experiment [2] (50 µM), 100%. For the same molecule, the 50% effective concentration (EC50) in experiment [2] worked out at 9.1 µM.
